Assay results from patent US20070129344A1, “Bicyclic 6-alkylidene-penem beta-lactamase inhibitors and beta-lactam antibiotic combination: a broad spectrum antibiotic” (priority 2005, published 2007).
Where a name gives a salt, the structure may show the parent alone.

Tests used:
[1] = system: K. pneumoniae GC 7821 DHA 1; test: MIC microbroth dilution; β-lactamase class C; format: cell-based; details: Klebsiella pneumoniae, GC7821DHA1, K. pneumoniae GC 7821; Cefepime + 4 ug/ml Compound 2; read-out: MIC
Procedure: (§1) The in vitro activities of the antibiotics were determined by the microbroth dilution method as recommended by the National Committee for Clinical Laboratory Standards (NCCLS). (NCCLS. 2000. Methods for Dilution Antimicrobial Susceptibility Tests for Bacteria That Grow Aerobically; Approved Standards: M7-A5, vol. 19. National Committee for Clinical Laboratory Standards, Villanova, Pa.). Mueller-Hinton II broth (MHBII)(BBL Cockeysville, Md.), was used for the testing procedure. […]. The plates were incubated for 18-22 hours at 35° C. in ambient air.

[2] = system: S. marcescens PT 696 Inducible AmpC; test: MIC microbroth dilution; β-lactamase class C; format: cell-based; details: Serratia marcescens, Cefepime + 4 ug/ml Compound 2, read-out: MIC
Procedure: as §1

[3] = system: E. cloacae GC 4142 (AmpC); test: MIC microbroth dilution; β-lactamase class C; format: cell-based; details: Enterobacter cloacae, Cefepime + 4 ug/ml Compound 2, read-out: MIC
Procedure: as §1

[4] = system: E. cloacae GC 6991 (AmpC); test: MIC microbroth dilution; β-lactamase class C; format: cell-based; details: Enterobacter cloacae, Cefepime + 4 ug/ml Compound 2, read-out: MIC
Procedure: as §1

[5] = system: E. cloacae PT 967 Inducible AmpC; test: MIC microbroth dilution; β-lactamase class C; format: cell-based; details: Enterobacter cloacae, Cefepime + 4 ug/ml Compound 2, read-out: MIC
Procedure: as §1

[6] = system: P. aeruginosa ATCC 27853 AmpC-inducable; test: MIC microbroth dilution; β-lactamase class C; format: cell-based; details: Pseudomonas aeruginosa, ATCC27853, Cefepime + 4 ug/ml Compound 2, read-out: MIC
Procedure: as §1

[7] = system: P. aeruginosa GC 1764 (AmpC); test: MIC microbroth dilution; β-lactamase class C; format: cell-based; details: Pseudomonas aeruginosa, Cefepime + 4 ug/ml Compound 2, read-out: MIC
Procedure: as §1

[8] = system: A. baumannii GC 7684 AmpC, AmpC; test: MIC microbroth dilution; β-lactamase class C; format: cell-based; details: Acinetobacter baumannii, Cefepime + 4 ug/ml Compound 2, read-out: MIC
Procedure: as §1

[9] = system: K. pneumoniae GC 7823 Fox 5; test: MIC microbroth dilution; β-lactamase class C; format: cell-based; details: Klebsiella pneumoniae, GC7823FOX5, K. pneumoniae GC 7823; Cefepime + 4 ug/ml Compound 2; read-out: MIC
Procedure: as §1

[10] = system: S. marcescens GC 1781 (Sme-1 + AmpC); test: MIC microbroth dilution; β-lactamase class A (Cb'ase), C; format: cell-based; details: Serratia marcescens, Cefepime + 4 ug/ml Compound 2, read-out: MIC
Procedure: as §1

[11] = system: E. coli ATCC 25922 (none); test: MIC microbroth dilution; β-lactamase class none; format: cell-based; details: Escherichia coli, ATCC25922, E. coli ATCC 25922; Cefepime + 4 ug/ml Compound 2; read-out: MIC
Procedure: as §1

E. coli GC 2844 (none) = test: MIC microbroth dilution; β-lactamase class none; format: cell-based; details: Escherichia coli, Cefepime + 4 ug/ml Compound 2, read-out: MIC
Procedure: as §1

E. coli GC 2804 (imp) = test: MIC microbroth dilution; β-lactamase class none; format: cell-based; details: Escherichia coli, Cefepime + 4 ug/ml Compound 2
Procedure: as §1

[12] = system: K. pneumoniae GC 7635 SHV-1, KPC2; test: MIC microbroth dilution; β-lactamase class A, A (Cb'ase); format: cell-based; details: Klebsiella pneumoniae, Cefepime + 4 ug/ml Compound 2, read-out: MIC
Procedure: as §1

[13] = system: P. aeruginosa PT 9236 PTZ-R; test: MIC microbroth dilution; format: cell-based; details: Pseudomonas aeruginosa, PT9236PTZR, Cefepime + 4 ug/ml Compound 2, read-out: MIC
Procedure: as §1

[14] = system: P. aeruginosa PT 8411 PTZ-R; test: MIC microbroth dilution; format: cell-based; details: Pseudomonas aeruginosa, PT8411PTZR, Cefepime + 4 ug/ml Compound 2, read-out: MIC
Procedure: as §1

[15] = system: P. aeruginosa PT 8503 PTZ-R; test: MIC microbroth dilution; format: cell-based; details: Pseudomonas aeruginosa, PT8503PTZR, Cefepime + 4 ug/ml Compound 2, read-out: MIC
Procedure: as §1

[16] = system: P. aeruginosa PT 9587 PTZ-R; test: MIC microbroth dilution; format: cell-based; details: Pseudomonas aeruginosa, PT9587PTZR, Cefepime + 4 ug/ml Compound 2, read-out: MIC
Procedure: as §1

E. coli GC 2847 (TEM-1) = test: MIC microbroth dilution; β-lactamase class A; format: cell-based; details: Escherichia coli, Cefepime + 4 ug/ml Compound 2, read-out: MIC
Procedure: as §1

[17] = system: S. maltophilia GC 1712 (L1); test: MIC microbroth dilution; β-lactamase class B; format: cell-based; details: Stenotrophomonas maltophilia, Cefepime + 4 ug/ml Compound 2, read-out: MIC
Procedure: as §1

[18] = system: E. coli GAR 6649 TEM, OXA, CTX (By PCR only); test: MIC microbroth dilution; β-lactamase class A, A (ESBL), D; format: cell-based; details: Escherichia coli, Cefepime + 4 ug/ml Compound 2, read-out: MIC
Procedure: as §1

[19] = system: A. baumannii GC 6661 IMI-R; test: MIC microbroth dilution; class PBP (penicillin binding protein); format: cell-based; details: Acinetobacter baumannii, GC6661IMIR, Cefepime + 4 ug/ml Compound 2, read-out: MIC
Procedure: as §1

[20] = system: A. baumannii GC 6660 IMI-R; test: as above; format: cell-based; details: Acinetobacter baumannii, GC6660IMIR, Cefepime + 4 ug/ml Compound 2, read-out: MIC
Procedure: as §1

[21] = system: A. baumannii GC 6662 IMI-R; test: as above; format: cell-based; details: Acinetobacter baumannii, GC6662IMIR, Cefepime + 4 ug/ml Compound 2, read-out: MIC
Procedure: as §1

[22] = system: K. pn GC 6651 (TEM-1 + SHV-1 + SHV-5); test: MIC microbroth dilution; β-lactamase class A, A (ESBL); format: cell-based, K. pneumoniae; details: Klebsiella pneumoniae, Cefepime + 4 ug/ml Compound 2, read-out: MIC
Procedure: as §1

[23] = system: K. pn GC 6657 (TEM-1 + SHV-27); test: as above; format: cell-based, K. pneumoniae; details: Klebsiella pneumoniae, Cefepime + 4 ug/ml Compound 2, read-out: MIC
Procedure: as §1

[24] = system: K. pn GC 3057 (CAZ-R; P/T-R); test: as above; format: cell-based, K. pneumoniae; details: Klebsiella pneumoniae, Cefepime + 4 ug/ml Compound 2, read-out: MIC
Procedure: as §1

[25] = system: K. pn GC 1554 (TEM-1 + TEM-26 + SHV-1); test: as above; format: cell-based, K. pneumoniae; details: Klebsiella pneumoniae, Cefepime + 4 ug/ml Compound 2, read-out: MIC
Procedure: as §1

[26] = system: K. pn GC 6494 (TEM-1 + SHV-5); test: as above; format: cell-based, K. pneumoniae; details: Klebsiella pneumoniae, Cefepime + 4 ug/ml Compound 2, read-out: MIC
Procedure: as §1

[27] = system: K. pn GC 2006 (TEM-10 + SHV-1); test: as above; format: cell-based, K. pneumoniae; details: Klebsiella pneumoniae, Cefepime + 4 ug/ml Compound 2, read-out: MIC
Procedure: as §1

[28] = system: K. pn GC 1963 (TEM-10 + SHV-1 + SHV-ESBL); test: as above; format: cell-based, K. pneumoniae; details: Klebsiella pneumoniae, Cefepime + 4 ug/ml Compound 2, read-out: MIC
Procedure: as §1

[29] = system: K. pn GC 6488 (TEM-1 + SHV-5 + SHV-7); test: as above; format: cell-based, K. pneumoniae; details: Klebsiella pneumoniae, Cefepime + 4 ug/ml Compound 2, read-out: MIC
Procedure: as §1

[30] = system: K. pn GC 1507 (TEM-9 + SHV-1); test: as above; format: cell-based, K. pneumoniae; details: Klebsiella pneumoniae, Cefepime + 4 ug/ml Compound 2, read-out: MIC
Procedure: as §1

[31] = system: K. pneumoniae GC 7632 TEM-1 KPC-2, SHV-7, SHV-12; test: MIC microbroth dilution; β-lactamase class A, A (Cb'ase), A (ESBL); format: cell-based; details: Klebsiella pneumoniae, Cefepime + 4 ug/ml Compound 2, read-out: MIC
Procedure: as §1

Structure (SMILES): O=C(O)C1=CS[C@@H]2/C(=C\c3cn4c(n3)COCC4)C(=O)N12 [Compound 2, (5R), (6Z)-6-(5,6-Dihydro-8H-imidazo[2.1-c][1,4]oxazin-2-ylmethylene)-7-oxo-4-thia-1-azabicyclo[3.2.0]hept-2-ene-2-carboxylic Acid, Sodium Salt]
- MIC [1]: 0.03 µg/mL
- MIC [2]: 0.06 µg/mL
- MIC [3]: 0.12 µg/mL
- MIC [4]: 0.5 µg/mL
- MIC [5]: 0.12 µg/mL
- MIC [6]: 2 µg/mL
- MIC [7]: 1 µg/mL
- MIC [8]: 8 µg/mL
- MIC [9]: 0.12 µg/mL
- MIC [10]: 0.06 µg/mL
- MIC [11]: 0.06 µg/mL
- MIC (E. coli GC 2844 (none)): 0.06 µg/mL
- MIC (E. coli GC 2804 (imp)): < 0.015 µg/mL
- MIC [12]: 4 µg/mL
- MIC [13]: 16 µg/mL
- MIC [14]: 4 µg/mL
- MIC [15]: 2 µg/mL
- MIC [16]: 2 µg/mL
- MIC (E. coli GC 2847 (TEM-1)): 0.06 µg/mL
- MIC [17]: 16 µg/mL
- MIC [18]: 1 µg/mL
- MIC [19]: 16 µg/mL
- MIC [20]: > 16 µg/mL
- MIC [21]: > 16 µg/mL
- MIC [22]: 0.12 µg/mL
- MIC [23]: 0.06 µg/mL
- MIC [24]: 0.12 µg/mL
- MIC [25]: 0.12 µg/mL
- MIC [26]: 0.12 µg/mL
- MIC [27]: 0.25 µg/mL
- MIC [28]: 0.25 µg/mL
- MIC [29]: 0.5 µg/mL
- MIC [30]: 0.06 µg/mL
- MIC [31]: > 16 µg/mL
